Measured values reported in US20150136150A1, “DURABLE SKIN MARKING COMPOSITIONS” (OP-MARKS, INC., priority 2011, published 2015).
Where “and” joins values, the source holds several entries; their conditions need not be identical. Identical values can stand only once. Like-named read-outs stand apart in the source and are kept apart here.

Assays:
[1] = Solvent miscibility and compatibility with octyl cyanoacrylate; format: physicochemical; design: key: V = slightly viscous; VV = viscous; VVV = very viscous; Lyr = layers; Pl = pale; Lt = light; Y = yellow; RX = reacts; Gry = grey; Brn = brown; Blk = black; settings: 3 ml solvent + 3 ml OCA
Procedure: (§1) Next, the solvents were tested for miscibility and compatibility with cyanoacrylate esters. Briefly, beginning with 3 ml samples each of butyl cyanoacrylate (BCA), octyl cyanoacrylate (OCA) and ethoxyethyl cyanoacrylate (EECA), 3 ml of each solvent was added drop-wise to each cyanoacrylate sample and agitated to aid mixing. Observations of the samples were taken immediately and then at regular intervals over 7 days. […] The remaining 10 solvents were ranked according to their compatibility with the cyanoacrylate esters based primarily on their compatibility with BCA over 7 days, secondarily on their compatibility with OCA, and finally on their miscibility with EECA.

[2] = Solvent compatibility with viscosity-increasing polymer, viscosity of solution: MMA; format: physicochemical; design: unit not given here; settings: polymer added at 5% by weight, up to 3 days agitation
[3] = Solvent compatibility with viscosity-increasing polymer, viscosity of solution: CAB; format: physicochemical; design: unit not given here; settings: polymer added at 5% by weight, up to 3 days agitation
[4] = relative volatility compared to butyl acetate; cited from earlier work
[5] = cited from earlier work
rat = settings: cited from earlier work
[6] = Solvent miscibility and compatibility with butyl cyanoacrylate; format: physicochemical; design: key: V = slightly viscous; VV = viscous; VVV = very viscous; Lyr = layers; Pl = pale; Lt = light; Y = yellow; RX = reacts; Gry = grey; Brn = brown; Blk = black; settings: 3 ml solvent + 3 ml BCA
Procedure: as §1

[7] = Solvent miscibility and compatibility with ethoxyethyl cyanoacrylate; format: physicochemical; settings: 3 ml solvent + 3 ml EECA
Procedure: as §1

[8] = Solvent miscibility and compatibility with cyanoacrylate esters (overall); format: physicochemical; settings: observations over 7 days
Procedure: as §1

[9] = Solvent compatibility with viscosity-increasing polymer, viscosity of solution: VEE; format: physicochemical; design: unit not given here; settings: polymer added at 5% by weight, up to 3 days agitation
[10] = Solvent compatibility with viscosity-increasing polymer, viscosity of solution: IB; format: physicochemical; settings: for Dissolution of polyisobutylene: 5% by weight, up to 3 days; for Viscosity of solution with IB: polymer added at 5% by weight, up to 3 days agitation
[11] = Colorant solubility in solvent; settings: for PPM dye soluble: 10 g solvent added to 0.4 g D&C Violet #2, shaken 30 minutes, stood 30 minutes; for Dye solubility, suitability: D&C Violet #2
Procedure: For the remaining solvents, colorant solubility was assessed in terms of the solubility of D&C Violet #2. Briefly, 10 g of each of the solvents listed in Table 5 was added to 0.4 g of dye in 12 ml test tubes. The samples were shaken for 30 minutes then allowed to stand for 30 minutes. After standing, 5 ml of the top layer was removed and weighed into pre-weighed aluminum weigh boats where the solvent was allowed to evaporate before re-weighing.

[12] = Solvent compatibility with viscosity-increasing polymer, viscosity of solution: Cap; format: physicochemical; settings: polymer added at 5% by weight, up to 3 days agitation

C1COCCO1 [1,4 Dioxane]
OCA compatibility, 7 Day [1]: VVV
Viscosity of solution with MMA [2]: 17
Viscosity of solution with CAB [3]: 6.9
VL (volatility) [4]: 2.7
VP (vapor pressure) ([5]; at 20 ° C.): 27@20 mmHg

CCCCC(CC)CO (stereo not drawn) [2-ethyl hexanol]
VL (volatility) [4]: 0.01
TOX (toxicity, LD50) (rat; rat, in vivo, po): 3730 mg/kg
VP (vapor pressure) ([5]; at 20 ° C.): 0.36@20^ mmHg

COCCOCCOC [2-methoxy ethyl ether]
VP (vapor pressure) ([5]; at 25 ° C.): 3@25 mmHg

CC(=O)C(C)C [3-Methyl 2-butanone]
BCA compatibility, 1 Day [6]: Gry
BCA compatibility, 2 Day [6]: Blk
BCA compatibility, 7 Day [6]: Blk
OCA compatibility, 1 Day [1]: VV
OCA compatibility, 2 Day [1]: VV
OCA compatibility, 7 Day [1]: VV
EECA compatibility, 1 Day [7]: LtBrn
EECA compatibility, 2 Day [7]: LtGry
EECA compatibility, 7 Day [7]: LtGry
Reaction with the cyanoacrylate esters [8]: apparent reactions
VL (volatility) [4]: 2.9
TOX (toxicity, LD50) (rat; oral dose administered to rat): 3078 mg/kg
VP (vapor pressure) ([5]; at 20 ° C.): 42@20 mmHg

CC(C)=O [Acetone]
BCA compatibility, 2 Day [6]: V
BCA compatibility, 7 Day [6]: VV
Reaction with the cyanoacrylate esters [8]: apparent reactions
Viscosity of solution with MMA [2]: 2.4
Viscosity of solution with CAB [3]: 1.8
VL (volatility) [4]: 7.7
VP (vapor pressure) ([5]; at 39.5 ° C.): 400@39.5 mmHg

CCC(C)=O [Butanone]
OCA compatibility, 1 Day [1]: V
OCA compatibility, 2 Day [1]: VV
OCA compatibility, 7 Day [1]: VV
Viscosity of solution with MMA [2]: 4.5 and 4.2
Viscosity of solution with CAB [3]: 1.8
VL (volatility) [4]: 2.7
TOX (toxicity, LD50) (rat; oral dose administered to rat): 2737 mg/kg
VP (vapor pressure) ([5]; at 60 ° C.): 400@60 mmHg

CCCCOCCO [Butoxyethanol]
VP (vapor pressure) ([5]; at 20 ° C.): 0.8@20 mmHg

CCCCOC(C)=O [Butyl acetate]
VL (volatility) [4]: 1
TOX (toxicity, LD50) (rat; rat, in vivo, po): 10768 mg/kg

C1CCCCC1 [Cyclohexane]
OCA compatibility, 1 Day [1]: V
OCA compatibility, 2 Day [1]: VV
OCA compatibility, 7 Day [1]: VV
EECA compatibility, 1 Day [7]: 2Lyr
EECA compatibility, 2 Day [7]: 2Lyr
EECA compatibility, 7 Day [7]: 2Lyr
EECA compatibility, Time 0 [7]: 2Lyr
Viscosity of solution with VEE [9]: 4.5
Dissolution of polyisobutylene [10]: partially dissolve
Viscosity of solution with IB [10]: 59
PPM dye soluble [11]: 600 PPM
Dye solubility, suitability [11]: insufficient dye solubility
VL (volatility) [4]: 2.6
TOX (toxicity, LD50) (rat; rat, in vivo, po): 12705 mg/kg
VP (vapor pressure) ([5]; at 20 ° C.): 95@20 mmHg

O=C1CCCCC1 [Cyclohexanone]
VL (volatility) [4]: 0.29
TOX (toxicity, LD50) (rat; rat, in vivo, po): 1000 mg/kg
VP (vapor pressure) ([5]; at 25 ° C.): 5@25 mmHg

CC(=O)CC(C)(C)O [Diacetone alcohol]
VL (volatility) [4]: 0.14
TOX (toxicity, LD50) (rat; oral dose administered to rat): 4000 mg/kg
VP (vapor pressure) ([5]; at 20 ° C.): 0.95@20^ mmHg

CC(Cl)CCl (stereo not drawn) [Dichloropropane]
VL (volatility) [4]: −1
TOX (toxicity, LD50) (rat; oral dose administered to rat): 1947 mg/kg
VP (vapor pressure) ([5]; at 20 ° C.): 40@20 mmHg

CCOCC [Diethyl ether]
Viscosity of solution with VEE [9]: 1.2
VL (volatility) [4]: 37.5
VP (vapor pressure) ([5]; at 20 ° C.): 440@20 mmHg

OCCOCCO [Diethylene glycol]
VP (vapor pressure) ([5]; at 92 ° C.): 1@92 mmHg

CC(C)CC(=O)CC(C)C [Diisobutyl ketone]
TOX (toxicity, LD50) (rat; rat, in vivo, po): 5750 mg/kg

CC(C)C(=O)C(C)C [Diisopropyl ketone]
VL (volatility) [4]: 0.17
TOX (toxicity, LD50) (rat; rat, in vivo, po): 3536 mg/kg
VP (vapor pressure) ([5]; at 37 ° C.): 13.3@37^ mmHg

CCOCCOC(C)=O [Ethoxyethyl acetate]
VL (volatility) [4]: −1
TOX (toxicity, LD50) (rat; rat, in vivo, po): 2700 mg/kg
VP (vapor pressure) ([5]; at 20 ° C.): 2@20 mmHg

CCOC(C)=O [Ethyl acetate]
OCA compatibility, 2 Day [1]: V?
OCA compatibility, 7 Day [1]: VV
Viscosity of solution with MMA [2]: 4.7
Viscosity of solution with CAB [3]: 2.3
PPM dye soluble [11]: 3400 PPM
VL (volatility) [4]: 6
TOX (toxicity, LD50) (rat; oral dose administered to rat): 5620 mg/kg

CCCCCCC [Heptane]
BCA compatibility, 1 Day [6]: PlY
BCA compatibility, 2 Day [6]: LtY
BCA compatibility, 7 Day [6]: LtY
OCA compatibility, 2 Day [1]: VV
OCA compatibility, 7 Day [1]: VV
EECA compatibility, 1 Day [7]: 2Lyr
EECA compatibility, 2 Day [7]: 2Lyr
EECA compatibility, 7 Day [7]: 2Lyr
EECA compatibility, Time 0 [7]: 2Lyr
Viscosity of solution with VEE [9]: 1.5
Dissolution of polyisobutylene [10]: partially dissolve
Viscosity of solution with IB [10]: 11
VL (volatility) [4]: 4.3
TOX (toxicity, LD50) (rat; rat, in vivo, po): 3200 mg/kg
VP (vapor pressure) ([5]; at 20 ° C.): 40@20 mmHg

CCCCCC [Hexane]
EECA compatibility, 1 Day [7]: 2Lyr
EECA compatibility, 2 Day [7]: 2Lyr
EECA compatibility, 7 Day [7]: 2Lyr
EECA compatibility, Time 0 [7]: 2Lyr
Viscosity of solution with VEE [9]: 0.9
Viscosity of solution with IB [10]: 7.7
PPM dye soluble [11]: 500 PPM
Dye solubility, suitability [11]: insufficient dye solubility
TOX (toxicity, LD50) (rat; rat, in vivo, po): 28710 mg/kg
VP (vapor pressure) ([5]; at 20 ° C.): 132@20 mmHg

C=CC(=C)C [Isoprene]
BCA compatibility, Time 0 ([6]; time 0): RX
Reaction with the cyanoacrylate esters [8]: apparent reactions
VL (volatility) [4]: 28.6
TOX (toxicity, LD50) (rat; rat, in vivo, po): 2100 mg/kg
VP (vapor pressure) ([5]; at 20 ° C.): 560@20 mmHg

COCCO [Methoxy ethanol]
VL (volatility) [4]: −1
TOX (toxicity, LD50) (rat; oral dose administered to rat): 2370 mg/kg
VP (vapor pressure) ([5]; at 20 ° C.): 6.2@20 mmHg

COCC(C)O (stereo not drawn) [Methoxy propanol]
VL (volatility) [4]: 0.3
TOX (toxicity, LD50) (rat; oral dose administered to rat): 8532 mg/kg

CC1CCCCC1 [Methyl cyclohexane]
VL (volatility) [4]: 2.99
TOX (toxicity, LD50) (rat; oral dose administered to rat): 2250 mg/kg
VP (vapor pressure) ([5]; at 20 ° C.): 37@20 mmHg

CC(=O)CC(C)C [Methyl isobutyl ketone]
VL (volatility) [4]: 1.6
TOX (toxicity, LD50) (rat; oral dose administered to rat): 1600 mg/kg
VP (vapor pressure) ([5]; at 20 ° C.): 16@20 mmHg

C[N+](=O)[O-] [Nitromethane]
VL (volatility) [4]: 1.39
VP (vapor pressure) ([5]; at 20 ° C.): 28@20 mmHg

CCCOCC(C)O (stereo not drawn) [PGPE (Arcosolv)]
VL (volatility) [4]: 0.21
VP (vapor pressure) ([5]; at 20 ° C.): 1.7@20 mmHg

CCCOC(C)=O [Propyl acetate]
VL (volatility) [4]: 3.0
TOX (toxicity, LD50) (rat; rat, in vivo, po): 6640 mg/kg
VP (vapor pressure) ([5]; at 20 ° C.): 25@20 mmHg

C1CCOC1 [THF, tetrahydrofuran]
OCA compatibility, 1 Day [1]: VV
OCA compatibility, 2 Day [1]: VV
OCA compatibility, 7 Day [1]: VV
Viscosity of solution with MMA [2]: 5.3
Viscosity of solution with CAB [3]: 3.1
VL (volatility) [4]: 8
VP (vapor pressure) ([5]; at 20 ° C.): 129@20 mmHg

Cc1ccccc1 [Toluene]
Viscosity of solution with Cap [12]: 3.7
Viscosity of solution with VEE [9]: 3.1
Viscosity of solution with IB [10]: 20
VL (volatility) [4]: 2.24
VP (vapor pressure) ([5]; at 20 ° C.): 22@20 mmHg

CC(=O)OC(C)(C)C [t-Butyl acetate]
VL (volatility) [4]: 1.5
TOX (toxicity, LD50) (rat; oral dose administered to rat): 13400 mg/kg

CC(=O)OC(C)C [t-propyl acetate]
PPM dye soluble [11]: 2200 PPM
TOX (toxicity, LD50) (rat; oral dose administered to rat): 6750 mg/kg
VP (vapor pressure) ([5]; at 25 ° C.): 59@25 mmHg

Methyl cyclohexanone
VL (volatility) [4]: 0.29
TOX (toxicity, LD50) (rat; oral dose administered to rat): 2140 mg/kg
VP (vapor pressure) ([5]; at 20 ° C.): 3.3@20 mmHg

Xylene
VL (volatility) [4]: 0.7
TOX (toxicity, LD50) (rat; oral dose administered to rat): 3910 mg/kg
VP (vapor pressure) ([5]; at 20 ° C.): 9@20 mmHg
